Where a name gives a salt, the structure may show the parent alone.
Experiments:
[1] = test system: Vibrio percolans ATCC 8461; assay: 890 Assay Units, agar plate disc-diffusion, cephaloridine standard; format: cell-based
Description: II. Assay Procedure for Determining "890 Assay Units"
A conventional agar plate disc-diffusion method is employed using Vibrio percolans ATCC 8461 as tester organism. Cephaloridine is employed as a standard. Plates containing Vibrio percolans ATCC 8461 are prepared as follows. A culture of Vibrio percolans ATCC 8461 is incubated in nutrient broth-yeast extract overnight on a rotary shaker at 28° C. and then diluted to a density of 60% transmittance at 660 nm. A 33.2 ml. portion of this diluted culture is added to 1 liter of a medium composed of nutrient agar plus 0.2% yeast extract maintained at 46° C. The inoculated agar-containing medium is poured into 100×15 mn. plastic-petri dishes, 10 ml. per dish, chilled, and maintained at 2°-4° C. for up to 5 days before use.
The concentration of cephaloridine which is equivalent to 1 unit/ml. of 890A1 is determined by assay on plates prepared as above, but containing 5 ml. of inoculated medium per plate, as follows. Four concentrations of cephaloridine constitute the standard--3.12, 6.25, 12.5 and 25 mcg per ml. with the 12.5 mcg per ml. as a reference solution. The zone diameters on a 5 ml. plate for the standard are as follows:
A unit is defined as the amount of antibiotic per ml. producing a 25 mm. zone of inhibition on a 5 ml. plate as described in section I above. Therefore, in this assay a concentration of 12.5 mcg per ml. of cephaloridine is considered equivalent to 1 unit of 890A1 per ml. Since the slope of the line for cephaloridine is 4.0 calculations of the potency of a sample are made using a slope of 4.0

[2] = Hydroxylamine reaction (A300 decrease); format: physicochemical
Text: The disodium salt of antibiotic 890A10 has an absorption maximum at 299 nm and a minimum at 243 nm at neutral pH in water. The E% at 300 nm of the most highly purified preparation of disodium salt is 214. The ratio A300 /A250 is 3.33 for the most purified sample, and the ratio A300 /A220 is 2.05. […] More than 94% of the absorption at 300 nm can be extinguished by reaction with hydroxylamine at neutral pH. The absorbance at 250 nm also decreases upon reaction with hydroxylamine, and the ratio of the absorbance decrease at 250 nm to the decrease at 300 nm, is approximately 0.16. […]
Antibiotic 890A10 reacts with hydroxylamine and produces a substance with greatly diminished absorbance at 300 nm. This provides the basis for a quantitative assay of the antibiotic 890A10.
The solution to be assayed is brought to 0.05 M in potassium phosphate, pH 7.4 by adding 1/20th volume of a solution containing 0.8 M K2 HPO4 and 0.2 M KH2 PO4 . Then one-hundredth volume of 1 M hydroxylamine hydrochloride is added, and the absorbance at 300 nm is measured at intervals of one-half to two minutes. […] First-order kinetics are assumed and a half-life is estimated from the absorbance decrease during the first ten minutes. From this half-life, the time is estimated beyond which no further absorbance decrease should be observed and observations are continued beyond that time. […]

SMILES	concentration equivalent to 1 unit of 890A1 per ml ([1]; 25 mm zone of inhibition on a 5 ml plate) [mcg per ml]	zone of inhibition at 3.12 µg/mL ([1]; Comamonas terrigena, ATCC8461, 3.12 mcg/ml, 5 ml plate, read-out: Zone Diameter) [mm]	zone of inhibition at 6.25 µg/mL ([1]; Comamonas terrigena, ATCC8461, 6.25 mcg/ml, 5 ml plate, read-out: Zone Diameter) [mm]	zone of inhibition at 12.5 µg/mL ([1]; Comamonas terrigena, ATCC8461, 12.5 mcg/ml (reference solution), 5 ml plate, read-out: Zone Diameter) [mm]	zone of inhibition at 25 µg/mL ([1]; Comamonas terrigena, ATCC8461, 25 mcg/ml, 5 ml plate, read-out: Zone Diameter) [mm]	absorption at 300 nm extinguished by reaction with hydroxylamine ([2]; neutral pH)	half-life of reaction with hydroxylamine ([2]; room temperature, apparently first order, A300 decrease, pH 7.4) [s]
O=C(Cc1cccs1)N[C@@H]1C(=O)N2C(C(=O)[O-])=C(C[n+]3ccccc3)CS[C@H]12 [cephaloridine]	12.5	16.8	22.3	25	29.6	–	–
CC(=O)NCCSC1=C(C(=O)O)N2C(=O)C(C(C)OS(=O)(=O)O)C2C1 (stereo not shown) [disodium salt of antibiotic 890A10]	–	–	–	–	–	More than 94%	23 to 60
